Results on 3 substances are retold here after patent US11116851B2, “Anti-cancer and anti-inflammatory therapeutics and methods thereof” (University of Massachusetts, priority 2015, dated 2021).

Series [1] relates to PC3 cells. The series is described as follows: PC3 cell proliferation with Tet-inducible IBS or DKK3 constructs. It is filed as cell-based. As to conditions: limited antibiotic induction of Tet-inducible construct. The text has this: The relationship between IBS and the Wnt/β-catenin signaling pathway was defined by cell proliferation, promoter-driven reporter assays, and cell migration analysis. Limited antibiotic induction of Tet-inducible IBS or DKK3 constructs was used to avoid the untoward effects of over-expression. […] (Veeck et al. 2012 Biochim Biophys Acta 1825, 18-28; Hsieh et al. 2004 Oncogene 23, 9183-9189; Abarzua et al 2005 Cancer Res 65, 9617-9622; Edamura et al. 2007 Cancer Gene Ther 14, 765-772.)

For series [2], the target named is native, unphosphorylated β-catenin (UniProt P35222). The experiment in a line: cell-based or functional assay.
Series [3] relates to Elf3. The series is described as follows: Elf3-luciferase reporter assay. It is filed as cell-based. As to conditions: suppressed by Wnt-1 stimulation. The text has this:
(§1) FIG. 23. TAT-IBS antagonizes primary and secondary β-catenin and NF-κB-dependent gene expression. A) TAT-IBS blocks an NF-κB (p65)-responsive promoter driving luciferase reporter in HEK293 cells that was stimulated by Wnt-1 transfection (shaded bars). […] C) (Data previously disclosed in UMMC 12-40PR2). TAT-IBS restores E-Cadherin (CDH1)-promoter activity in Wnt-1 stimulated cells (middle chart). TopFlash and E2F-luciferase reporters are dependent on β-TrCP substrates, β-catenin and E2F, respectively (top and bottom charts). TAT-IBS blocks transcriptional activation by Wnt-1 stimulation of both reporters. DKK3b fused to an N-terminal cell penetrating peptide, a protein construct we refer to as TAT-IBS (a.k.a. cpIBS), regulates the activity of promoter elements that depend upon the nuclear translocation of β-TrCP target substrates (FIG. 23) as determined by promoter-luciferase reporter assays. Wnt-1 stimulates transcription regulated by NF-κB (FIG. 23A), β-catenin, and E2F (FIG. 23 C) transcription factor proteins. TAT-IBS treatment blocks this Wnt-1-induced stimulation. In contrast, Wnt-1 down-regulates transcription from promoter elements of two biomarkers of epithelial cellular differentiation, E-cadherin (FIG. 23C) and Elf3 (FIG. 23B). TAT-IBS treatment blocks Wnt-1-induced repression of these two epithelial gene transcripts.
(Reporter assays use an easily measured gene product as a stand-in for the process of interest.)

The subject of series [4] is human ovarian, pancreatic, and colon cancers. The series is described as follows: Tumor growth in tumor bearing PDX-mice. It is filed as in vivo, mouse. The text has this: (§2) Delivery of this intracellular tumor suppressor to the cytoplasm of the cancer cell is essential to achieve the cancer cell growth arrest and apoptosis. First attempts were made by fusing a variant of the cell penetrating peptide-TAT.

The subject of series [5] is HEK293 cells. The experiment in a line: Basal and Wnt stimulated proliferation of HEK293 cells. As to conditions: HEK293, highest concentration tested. It counts as cell-based. The text has this: The impact of IBS on basal and Wnt stimulated cell proliferation was then examined in immortalized HEK293 cells (FIG. 9a). […] The more robust silencing by TAT-IBS is likely due to the universal delivery of this regulator to the cell monolayer.

The conditions of series [6]: in vivo.
Excerpt: as §2

For series [7], the system named is NF-κB (p65). The experiment in a line: NF-κB (p65)-responsive promoter luciferase reporter in HEK293 cells. It is filed as cell-based. As to conditions: HEK293 cells stimulated by Wnt-1 transfection.
Excerpt: as §1

Series [8] deals with PC3 cells. The series is described as follows: PC3 cell proliferation after TAT-fusion protein/peptide. It is filed as cell-based. On the procedure:
(§3) Over-expression of DKK3 in cancer cells initiates c-Jun Kinase (JNK) mediated apoptosis. (Abarzua et al. 2005 Cancer Res 65, 9617-9622; Kawasaki et al. 2009 Cancer Gene Ther 16, 65-72.) IBS and the JNK inhibitor, TAT-JBD were introduced into PC3 cells as TAT-fusion protein and peptide, respectively, and cell proliferation was measured after 3 days. […] Pro-apoptotic levels of cleaved Caspase 3 increased in TAT-IBS treated cells and this increase was blocked by inhibition of JNK activity (FIG. 8d). […] (Veeck et al. 2012 Biochim Biophys Acta 1825, 18-28; Abarzua et al. 2005 Cancer Res 65, 9617-9622.)

Series [9] deals with Cleaved Caspase 3. The experiment in a line: Cleaved Caspase 3 in PC3 cells. It counts as cell-based. On the procedure: as §3
The test system of series [10] is β-catenin. The experiment in a line: Tcf-luciferase promoter reporter assay. It is filed as cell-based. As to conditions: Wnt1 co-transfected cells, treated 24 h. How it is done:
Primary and downstream promoter-luciferase reporter assays were used to explore the interaction between IBS and β-catenin-driven gene expression. Cells were co-transfected with Wntl and promoter-driven luciferase constructs and treated with TAT-IBS for 24 h. […] The ability of IBS to modulate two downstream β-catenin modulated pathways that reduce cell adhesion (ECad) and promote cell cycle progression (E2F) was also examined. […] Motile MDA-MB-231 cells were used to examine the effect of IBS on β-catenin dependent cell migration. IBS slowed malignant cell migration by >60% (FIG. 9d).

Chain of UniProt P35222 (P35222 2-781 limits assumed): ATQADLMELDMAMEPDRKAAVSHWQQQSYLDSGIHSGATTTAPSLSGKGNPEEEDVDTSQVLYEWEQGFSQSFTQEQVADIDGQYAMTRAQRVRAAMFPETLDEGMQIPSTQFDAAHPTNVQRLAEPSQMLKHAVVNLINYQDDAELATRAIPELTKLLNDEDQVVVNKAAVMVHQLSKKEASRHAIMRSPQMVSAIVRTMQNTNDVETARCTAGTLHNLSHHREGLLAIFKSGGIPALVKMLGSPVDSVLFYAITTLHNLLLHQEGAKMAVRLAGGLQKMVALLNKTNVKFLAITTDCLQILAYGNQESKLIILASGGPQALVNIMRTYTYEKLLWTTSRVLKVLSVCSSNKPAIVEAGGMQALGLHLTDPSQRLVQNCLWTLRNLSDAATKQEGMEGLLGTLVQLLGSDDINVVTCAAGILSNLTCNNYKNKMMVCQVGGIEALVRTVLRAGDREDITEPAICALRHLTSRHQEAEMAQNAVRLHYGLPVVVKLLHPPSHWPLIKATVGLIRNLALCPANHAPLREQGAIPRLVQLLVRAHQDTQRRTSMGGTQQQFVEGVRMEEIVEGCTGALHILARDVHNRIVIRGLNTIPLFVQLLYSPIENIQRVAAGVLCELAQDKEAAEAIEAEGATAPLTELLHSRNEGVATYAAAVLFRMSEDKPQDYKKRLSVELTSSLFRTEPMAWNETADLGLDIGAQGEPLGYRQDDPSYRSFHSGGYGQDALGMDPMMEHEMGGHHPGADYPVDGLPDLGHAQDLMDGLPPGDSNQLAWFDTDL

Take “DKK3: secreted glycoprotein product of the DKK3 locus”: the PC3 cell proliferation result in series [1] is “did not alter the rate of PC3 cell proliferation”.

Consider “TAT-IBS (DKK3b fused to an N-terminal cell penetrating peptide) (from UniProt Q9UBP4 72-350)”, for which, in series [2], the nuclear β-catenin level in LiCl-stimulated SOAS-2 and HeLa cells (cell fractionation) (fraction of untreated controls) was found to be 0.33; the total cell content and distribution of β-catenin (nuclear, cytosolic and microfilament fractions) was 3 fold.

Regarding “TAT-IBS: DKK3b fused to an N-terminal cell penetrating peptide; bacterially expressed, unfolded fusion protein”, in series [3], the “transcriptional activity of Elf3-luciferase” value is recorded as “restores transcriptional activity”. Also, the tumor necrosis result in series [4] (pancreatic, and colon cancers in PDX-mice) is given as “led to tumor necrosis”. The “growth of human cancers in PDX-mice” value in series [4] (pancreatic, and colon cancers, bacterially expressed, unfolded protein) is “arrested growth”. Besides, in series [5], the Wnt-stimulated cell proliferation entry was “completely eliminated” and the basal cell proliferation result is on record as “without altering basal cell proliferation”. Moreover, in series [6], the “effects on biology in the mouse” value is “no effects on any biology in the mouse”. Further, the “NF-κB (p65)-responsive promoter luciferase reporter” value in series [7] is “blocks”. Also, in series [8] (PC3 cells, after 3 days), the “loss of the initial cell population” value is reported as over 75%. Besides, in [8] (TAT-fusion protein, measured after 3 days), the PC3 cell proliferation result is recorded as “arrested proliferation”. In addition, in series [9], the “pro-apoptotic levels of cleaved Caspase 3” value is “increased”. The “Wnt stimulated Tcf-luciferase expression” value in [10] is recorded as “completely arrested”.
